Data: patent US20250319012A1, “METHOD FOR PREPARING LOW-MOLECULAR-WEIGHT SILK SERICIN, AND COSMETIC COMPOSITION COMPRISING SERICIN PREPARED THEREBY” (HEWON CO., LTD., priority 2021, published 2025)

Test system: soluble sericin
Assay: Hydrolytic activity of enzymes on soluble sericin (absorbance of supernatant at 271 nm)
Assay type: biochemical
Conditions: 10% enzyme, pH 7, 8 hours, 30-70° C. tested
Experimental: To confirm the degree of hydrolysis of sericin according to the kinds of enzyme, a total of 7 kinds of endopeptidase type alcalase, esperase, protamax, bromelain, papain, neutrase and exopeptidase type flavourzyme were prepared. At this time, sericin extracted from the sericin prepared in Preparation Example 1 at 120° C. for 30 minutes was used as a substrate sample, and after centrifugation, insoluble sericin was removed and soluble sericin was used. […]
The reactants after hydrolysis were subjected to enzyme inactivation at 85° C. for 10 min, and then the supernatant was collected by centrifugation (10,000 rpm, 10 min). After diluting the supernatant 20 times with D/W, the absorbance value measured at 271 nm, which is the maximum absorption wavelength of sericin, with a spectrophotometer (UV/VIS Nano Spectrophotometer, Nabi, Microdigital) was used as a measure of solubility.
In order to minimize the change in pH during the enzyme reaction of Preparation Example 2, the pH was adjusted using 1 M acetic acid and an average of 26.5% ammonia hydroxide. 1 mg of soluble sericin was treated with 0.1 mg of an enzyme (10% of sericin concentration), […], and then the supernatant was collected to measure the absorbance with pH change. […]

Row | Molecule | temperature at which high hydrolytic activity was shown
1 | bromelain | 50 °C
2 | papain: endopeptidase type enzyme (protein, UniProt P00784 134-345, looked up) Papain: IPEYVDWRQKGAVTPVKNQGSCGSCWAFSAVVTIEGIIKIRTGNLNEYSEQELLDCDRRSYGCNGGYPWSALQLVAQYGIHYRNTYPYEGVQRYCRSREKGPYAAKTDGVRQVQPYNEGALLYSIANQPVSVVLEAAGKDFQLYRGGIFVGPCGNKVDHAVAAVGYGPNYILIKNSWGTGWGENGYIRIKRGTGNSYGVCGLYTSSFYPVKN | 60 °C
